Data taken from patent US9062050B2, “Inhibitor of JAK1 and JAK2” (Eli Lilly and Company, priority 2012, dated 2015).

Molecular target: JAK2 (Homo sapiens, UniProt O60674)
Assay: JAK2 EPO-TF1/pSTAT5 cell-based assay (Cellomics ArrayScan HCS)
Parameters: endogenous in cells; host or cells: TF-1 (human erythroid leukemia) cells
Settings: TF-1 cells, EPO at 1.6 U/mL, relative IC50, n=65; read-out: IC50, inhibits JAK2 (pSTAT5)
Excerpt: The JAK2 EPO-TF1/pSTAT5 cell-based assay mimics the constitutive activation of JAK2-STAT5 in erythroid progenitor cells, which drives the overproduction of red blood cells, a marker of polycythemia vera (PV). Therefore, the EPO-TF1/pSTAT5 cell-based assay enables the evaluation of the JAK2 cellular activity of JAK compounds in vitro.
TF-1 (human erythroid leukemia) cells are maintained in RPMI 1640 (RPMI-1640 was developed by Moore et. al. at Roswell Park Memorial Institute. The formulation is based on the RPMI-1630 series of media utilizing a bicarbonate buffering system and alterations in the amounts of amino acids and vitamins.) with 10% fetal bovine serum (FBS), 0.075% sodium bicarbonate, 1 mM sodium pyruvate, 1× antibiotic/antimycotic (Invitrogen, Carlsbad, Calif.) and 0.45% glucose. The medium is supplemented with GM-CSF (granulocyte-macrophage colony-stimulating factor) at a final concentration of 2 ng/mL. Cells are kept at 37° C. with 5% CO2. […] TF-1 cells are counted and cells are collected to seed 2×10^7 cells per 96-well plate at a density of 2×10^5 cells per well. […]
To perform the assay, serum-starved cells are collected and washed once with unsupplemented RPMI 1640 medium. […] An aliquot of 200 μL of 1 to 10 dilution of Mouse anti-pSTAT5 (pY694) Alexa Fluor 647® in fluorescence activated cell sorting (FACS) buffer is added to the cells. […]

Sequence of JAK2 (O60674 whole entry): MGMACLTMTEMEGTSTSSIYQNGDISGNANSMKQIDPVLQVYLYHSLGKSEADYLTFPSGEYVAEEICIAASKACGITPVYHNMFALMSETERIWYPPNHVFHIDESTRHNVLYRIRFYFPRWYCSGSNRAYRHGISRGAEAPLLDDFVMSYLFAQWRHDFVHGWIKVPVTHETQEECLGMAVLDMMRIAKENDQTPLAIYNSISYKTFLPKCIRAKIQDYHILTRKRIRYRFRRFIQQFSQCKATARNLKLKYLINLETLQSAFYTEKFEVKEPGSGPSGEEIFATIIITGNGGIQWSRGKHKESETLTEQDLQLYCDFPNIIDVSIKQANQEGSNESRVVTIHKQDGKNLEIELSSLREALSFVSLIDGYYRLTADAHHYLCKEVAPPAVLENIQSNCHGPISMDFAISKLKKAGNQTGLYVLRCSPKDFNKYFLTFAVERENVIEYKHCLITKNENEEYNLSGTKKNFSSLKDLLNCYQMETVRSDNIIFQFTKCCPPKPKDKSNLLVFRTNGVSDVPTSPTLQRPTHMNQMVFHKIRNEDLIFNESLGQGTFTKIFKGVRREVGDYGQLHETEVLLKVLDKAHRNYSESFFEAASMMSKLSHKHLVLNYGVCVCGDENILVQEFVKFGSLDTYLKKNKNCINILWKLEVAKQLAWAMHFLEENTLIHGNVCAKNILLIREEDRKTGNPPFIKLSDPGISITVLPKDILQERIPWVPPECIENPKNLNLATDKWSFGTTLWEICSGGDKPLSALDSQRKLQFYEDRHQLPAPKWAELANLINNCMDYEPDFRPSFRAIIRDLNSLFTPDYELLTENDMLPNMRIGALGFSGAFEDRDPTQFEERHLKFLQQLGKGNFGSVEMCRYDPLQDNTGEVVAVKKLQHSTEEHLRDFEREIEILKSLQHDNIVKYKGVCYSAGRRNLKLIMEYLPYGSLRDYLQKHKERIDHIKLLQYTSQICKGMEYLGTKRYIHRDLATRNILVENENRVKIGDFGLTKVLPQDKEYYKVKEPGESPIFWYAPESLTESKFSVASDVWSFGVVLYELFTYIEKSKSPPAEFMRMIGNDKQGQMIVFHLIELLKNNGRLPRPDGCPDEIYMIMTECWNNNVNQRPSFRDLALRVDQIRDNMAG

Compound: Cc1cc(Nc2ccc3ncn([C@@H]4CCc5ccc(F)cc54)c3n2)[nH]n1.Cl.Cl [Example 1, 3-[(1R)-6-fluoro-2,3-dihydro-1H-inden-1-yl]-N-(3-methyl-1H-pyrazol-5-yl)-3H-imidazo[4,5-b]pyridin-5-amine dihydrochloride]
- IC50: 35 nM
